Reference: US8445006B2, “Biomolecular coating for implants” (Georgia Tech Research Corporation, priority 2006, dated 2013)

Key:
MC3T3-E1 cells = assay: Centrifugation cell adhesion assay on ligand-tethered SAMs; type: cell-based, murine
Description: MC3T3-E1 murine immature osteoblast-like cells (Riken Cell Bank, Hirosawa, Japan) were used because of their expression of multiple integrins, including alpha5beta1, alpha2beta1, and alphaVbeta3. Cells were maintained at 37° C. in α-MEM supplemented with 10% FBS and 1% penicillin-streptomycin and passaged every 2-3 days via standard culture techniques.
Self-assembled monolayers (SAMs) of alkanethiols on gold were used to present well-defined, ordered surfaces with anchoring groups within a non-fouling background. Tri(ethylene glycol)-terminated alkanethiol (HS—(CH2)11—(OCH2CH2)3—OH; EG3) and carboxylic acid-terminated alkanethiol (HS—(CH2)11—(OCH2CH2)6—OCH2COOH; EG6-COOH) were previously synthesized and characterized. Gold-coated substrates were prepared by sequential deposition of titanium (100 Å) and gold (200 Å) films via an electron beam evaporator (Thermionics Laboratories, Hayward, Calif., 2×10^−6 Torr, 1 A/s) onto clean 6-well plate lids or glass coverslips. Mixed SAM surfaces were prepared on substrates by immersing in a 1.0 mM mixed solution of EG3/EG6-COOH thiols (4 h). Peptide ligands were tethered using standard peptide chemistry. Briefly, following washing in ethanol and ultrapure H2O, SAMs were incubated in 2.0 mM EDC and 5.0 mM NHS in 0.1 M 2-(N-morpho)-ethanesulfonic acid and 0.5 M NaCl (pH 6.0), and subsequently immersed in a 20 mM solution of 2-mercaptoethanol in deionized H2O. Adhesive ligands in PBS were then incubated on the activated supports for 30 min and the unreacted surface NHS esters were then quenched in 20 mM glycine. Finally, the surfaces were blocked in 1% heat-denatured bovine serum albumin (BSA) and then incubated overnight in DPBS to reduce nonspecific protein adsorption.
A modification of a centrifugation assay was used to apply controlled detachment forces to cells adhering to engineered surfaces. Multi-wells of engineered surfaces were created on gold-coated polystyrene plate lids using silicone gaskets (Grace Bio-Labs, Bend, Oreg.). Mixed SAMs were assembled and ligands tethered at varying densities. MC3T3-E1 cells were labeled with […] calcein-AM, a membrane-permeable green fluorescent dye, in 2 mM dextrose-DPBS for 30 min and resuspended in α-MEM with 10% FBS. Cells were seeded onto the surfaces at 200 cells/mm^2, and allowed to attach for 1 h at 37° C. For blocking antibody experiments, cells were incubated in the presence of function-perturbing antibodies (10 μg/ml) for 10 min with gentle agitation prior to cell seeding. Before centrifugation, cell images were taken using a Nikon TE-300 fluorescence microscope and Spot RT digital camera. Wells were then filled completely with dextrose-PBS, sealed, inverted, and centrifuged for 5 min at a prescribed speed on a Beckman Allegra 6 centrifuge (GH 3.8 rotor) to apply normal detachment forces. Media was then gently aspirated from the wells, and wells were refilled for post-spin image collection. Post/pre-spin cell ratios were determined by image analysis, and this adhesive fraction was plotted against ligand surface density to obtain cell adhesion profiles.

[1] = system: HFN7.1 monoclonal antibody; assay: ELISA with HFN7.1 monoclonal antibody; type: binding; conditions: passively adsorbed ligands, various coating concentrations
Description: An ELISA was used to probe for the biological activity of the FNIII7-10 fragment compared to pFN. FNIII7-10 or pFN was adsorbed onto either uncoated or Neutravidin-coated (100 μg/ml) 96-well black U-well Dynex plates at various concentrations for 30 min. Following incubation in blocking buffer (0.25% BSA, 0.1 M EDTA, 2.5% Tween-20, 0.00125% NaN3), HFN7.1 antibody (0.6 μg/ml in blocking buffer) was added for 1 h at 37° C., and, after washing with blocking buffer, surfaces were incubated in alkaline phosphatase-conjugated anti-mouse IgG (0.6 μg/ml) for 1 h at 37° C. Washed surfaces were exposed to 4-methylumbelliferyl phosphate (25 mg/ml in 10 mM diethanolamine, pH 9.5). The resulting fluorescence was quantified using an HTS 7000 Plus plate reader (Perkin Elmer, Foster City, Calif.) at 360 nm excitation and 465 nm emission.

rat tibia cortical bone = assay: Rat tibia cortical bone implantation, histology and bone-implant contact histomorphometry; type: in vivo; conditions: 4 weeks
Description: Commercially pure titanium implants (FIG. 4) were sonicated in de-ionized water for 20 min to remove surface debris. Implants were then dipped in 4% HF for 30 sec to remove the existing oxide layer and then incubated in 35% HNO3 for 30 min at 50° C. to regenerate a new oxide coating. Samples were transferred to 1.8 N NaOH for 1 min to terminate the oxidation reaction. Implants were then rinsed and boiled in de-ionized water for 1 h. To create the bioactive coating, the implants were incubated in 20 μg/ml GFOGER peptide (SEQ ID NO:1) or type I collagen solution for 1 h. Control titanium rods were incubated in PBS.
Implantations were conducted in accordance with an IACUC-approved protocol. Both hind legs of anesthetized, mature Sprague-Dawley male rats (250-350 g) were shaved and scrubbed with alcohol. The medial aspect of the proximal tibial metaphysis was exposed through an antero-medial skin incision, leaving the medial collateral ligament intact. Using a saline-cooled drill, two defects were created in each tibia. Sterile implant rods were press fit into the defects. Periosteum was mobilized and sutured over the implantation site, and the skin was closed with wound clips. Subjects were euthanized after 4 weeks and proximal tibiae were fixed in neutral buffered formalin for histology or recovered without fixation and maintained in PBS-moistened gauze for immediate mechanical testing.
Excised tibiae were fixed in 10% neutral buffered formalin for 1 week. […] Ground sections of 50-80 μm were generated using the Exakt Grinding System™. Two longitudinal ground sections were generated per tibia, each containing two titanium plugs inserted transverse to the tibia's long axis. Sections were then stained with Sanderson's Rapid Bone Stain™ and a van Gieson counter stain. Bone implant contact (BIC) was measured as the percentage of implant's circumference that was in direct contact with bone tissue (Adobe Photoshop® CS imaging software).
To evaluate the performance of the bioactive GFOGER peptide (SEQ ID NO:1) treatment in vivo, osseointegration in a rat tibia cortical bone model was quantified using quantitative histomorphometry and pull-out mechanical testing. A cylindrical titanium implant rod with a tapered stop collar was designed (FIG. 4). The tapered head ensures that all implants are inserted into the bone at the same depth, guaranteeing uniform bone contact among treatments. Using a saline-cooled drill, two defects 2 mm in diameter were created in the medial aspect of the proximal tibial metaphysis. Implant rods consisting of GFOGER peptide (SEQ ID NO:1) functionalized or untreated (control) titanium were press fit into the cortical defects. After four weeks, the rat tibiae were harvested and evaluated for bone apposition by histological staining and mechanical integration by pull-out testing. […] Representative micrographs show 50-80 μm longitudinal ground sections of rat tibia stained with Sanderson's Rapid Bone Stain™ and van Gieson counterstain. Cells stain dark to light blue, soft tissue elements stain blue-green, and bone matrix stains yellow orange to autumn orange.
Osseointegration of implants in a rat tibia cortical bone model was quantified to evaluate the in vivo performance of the engineered titanium surfaces in bone healing. Importantly, this in vivo model provides a rigorous platform to evaluate implant coating function in a relevant orthopaedic setting. Two 2.0-mm diameter defects were drilled into the medial aspect of the proximal tibial metaphysis using a saline cooled drill. Tapered cylindrical implants (FIG. 4) of clinical-grade titanium were press-fit into the cortical defects.

Substance: GRGDG13PHSRN (GRGDGGGGGGGGGGGGGPHSRN) [RGD-PHSRN]
- ADH50 (ligand density required for half-maximal adhesion) (MC3T3-E1 cells; ligand tethered to SAMs, MC3T3-E1): 1950 fmol/cm^2
- adhesion with blocking antibodies against α5β1 integrin (MC3T3-E1 cells; maximum ligand density, normalized to unblocked controls): only slightly reduced adhesion

Substance: pFN: human plasma fibronectin obtained from Invitrogen
- HFN7.1 binding (biological activity) [1]: increased with protein coating concentration

Substance: type I collagen: native type I collagen coating on titanium implants
- bone apposition (bone implant contact, BIC) (rat tibia cortical bone; passively coated implants vs untreated titanium): COL>Ti
- histology: peri-implant bone mineral (rat tibia cortical bone; passively coated titanium implants (20 μg/ml)): Less bone mineral was visible
